Key:
[1] = test system: A-549 lung carcinoma cells; experiment: Visualization of cell association of fluorescent-disaccharide probe (fluorescence microscopy); format: cell-based; conditions: 1 fM, five minutes at 37° C.; A-549 compared with CCL-75 normal lung fibroblasts; FIG. 5
Experimental: In this case, we tethered a non-fluorescent pro-fluorophore, 5(6)-carboxyfluorescein diacetate (CFSE) onto the disaccharide of bleomycin to create a BLM-sugar probe. This fluorophore should only fluoresce when acted upon by the cell, where intracellular esterases cleave the acetate groups allowing for detectable fluorescence.
Both A-549 lung carcinoma cells and CCL-75 normal lung fibroblasts were seeded on 35 mm glass cover slips at a density of 2.5×10^5 cells before incubating 48 hours to allow attachment and growth. A total effective concentration of 1 fM of the fluorescent-sugar derivative (34) and 5(6)-carboxyfluorescein diacetate N-succinimidyl ester (CFSE) compounds were added to cover slips of each cell type before incubation for five minutes at 37° C. To prepare slides for microscopy viewing, cover slips were washed in PBS and 70% ethanol solution before fixation in Histochoice MB Fixative (Electron Microscopy Sciences, Hatfield, Pa.) for 15 minutes. Fixed cover slips were mounted onto glass slides for viewing. Using the Zeiss Axiovert 200M inverted microscope (Apotome camera), fluorescent images were acquired using DIC (at 35 ms exposure time) and appropriate fluorescence filter at 470-490 nm excitation (761 ms exposure time), 40× objective magnification.

MCF-7 (Breast carcinoma) = experiment: Microbubble attachment to cultured cells (flow chamber, inverted microscopy); format: cell-based
Experimental: To create BLM A5- and deglyco BLM A5-microbubbles, the synthesized biotinylated compounds (1, 2 and 32) were conjugated to Targestar^B Targeted Ultrasound Contrast Agents (Targeson). For each of these preparations, 400 μL of Coupling Reagent (Targeson) was added to 1.5 mL of conjugated Targestar^B microbubbles and incubated for 20 min at room temperature, with gentle agitation every 5 min. The resulting product was divided into two syringes, each rinsed with 1.75 mL of Infusion Buffer, and then centrifuged for 3 min (400×g, 10° C.). The infranatant was then drained to 1 mL. For each separate preparation, […] containing 50 nM of the biotinylated compound was added to one of the vials and both were incubated at room temperature for 20 min with gentle agitation every 5 min. To each sample was added 1.75 mL of Infusion Buffer before centrifugation for 3 min at 400×g (10° C.). This solution was then drained to 1.0 mL before recovery of the supernatant and repetition of the previous step. Finally, the supernatant was resuspended in Infusion Buffer to a final volume of 2.0 mL.
Attachment of the (biotinylated BLM A5-, biotinylated deglyco BLM A5-, and biotinylated BLM A5 disaccharide-conjugated) microbubbles to the cultured cancer cells was imaged using an inverted microscope Zeiss Axiovert 200M fitted with an AxioCam MRm camera. […]

“5(6)-carboxyfluorescein diacetate N-succinimidyl ester [CFSE, reference compound]” was tested, and the “Fluorescence of cells after exposure to compound” value [1] was “lack of marked fluorescence”.

`NC(=O)O[C@@H]1[C@H](O)[C@@H](O[C@@H]2[C@H](OCCOCCNC(=O)CCCC[C@@H]3SC[C@@H]4NC(=O)N[C@@H]43)O[C@@H](CO)[C@@H](O)[C@@H]2O)O[C@H](CO)[C@H]1O` [Compound 32, (2R,3S,4S,5R,6R)-2-((2R,3S,4S,5S,6S)-4,5-dihydroxy-6-(hydroxymethyl)-2-(2-(2-(5-((3aS,4S,6aR)-2-oxohexahydro-1H-thieno[3,4-d]imidazol-4-yl)pentanamido)ethoxy)ethoxy)tetrahydro-2H-pyran-3-yloxy)-3,5-dihydroxy-6-(hydroxymethyl)tetrahydro-2H-pyran-4-yl Carbamate] was tested, and the “Microbubble attachment to MCF-7 cells (in words)” value (MCF-7 (Breast carcinoma); MCF-7 breast carcinoma cells, compound conjugated to microbubble, FIG. 3/4) was “greater attachment than biotinylated bleomycin A5” and the “Preferential attachment, tumor over normal cells” value (MCF-7 (Breast carcinoma); MCF-7 versus MCF-10A, conjugated onto the microbubble, FIG. 4a) was “preferential attachment to MCF-7 tumor cells over MCF-10A cells”.

`CC(=O)Oc1ccc2c(c1)Oc1cc(OC(C)=O)ccc1C21OC(=O)c2cc(C(=O)NCCOCCO[C@@H]3O[C@@H](CO)[C@@H](O)[C@H](O)[C@@H]3O[C@H]3O[C@H](CO)[C@@H](O)[C@H](OC(N)=O)[C@@H]3O)ccc21` [Compound 34, (4,5)-(2-(2-((2R,3S,4S,5S,6S)-3-((2R,3S,4S,5R,6R)-4-(Carbamoyloxy)-3,5-dihydroxy-6-(hydroxymethyl)tetrahydro-2H-pyran-2-yloxy)-4,5-dihydroxy-6-(hydroxymethyl)tetrahydro-2H-pyran-2-yloxy)ethoxy)ethylcarbamoyl)-3-oxo-3H-spiro[isobenzofuran-1,9′-xanthene]-3′,6′-diyl Diacetate] was tested, and the “Fluorescence of cells after exposure to compound” value [1] was “highest fluorescence only in the tumor cell line”.

Source: US9624255B2, “Carbohydrate-mediated tumor targeting” (Arizona Board of Regents, priority 2009, dated 2017)
